Reference: paper PMC6811792, “The Binding Affinity of Small Molecules with Yam Tyrosinase (Catechol Oxidase): A Biophysical Study” (Biochemistry Research International, 2019)
Read-outs that look alike come from different tables or passages of the source.

Columns and labels:
[1] = biological target: yam tyrosinase; assay: SPR interaction kinetics of single analytes with immobilized yam tyrosinase, two-state model; type: binding, Amorphophallus paeoniifolius
Protocol: SPR interaction studies were carried out using a Biocore X100 optical biosensor (GE Healthcare Life Sciences, Uppsala, Sweden). All the SPR measurements were performed in phosphate buffer saline (PBS; 10.1 mM Na2PO4, 1.8 mM KH2PO4, 137 mM NaCl, 2.7 mM KCl, pH 7.4, 0.005% P20). Initially, working dilutions were prepared from the analyte stock solution in PBS only and then allowed to flow through the sensor surface. Biocore control software version 2.2 was used for data collection. Refractive index changes as a function of time under constant flow condition are monitored by the system, and accordingly, experiments were performed. […] There is an inline subtraction of reference surface during the run. This change is usually reported in terms of response units (RUs). The surface of the chip is washed with PBS (running buffer) between each concentration.
The method of amine coupling was employed for the immobilization of yam tyrosinase which was dissolved (50 μg/mL) in 0.1 M sodium acetate buffer with pH value 4.5 as per the pH scouting study in [15]. Yam tyrosinase was immobilized on sensor chip series S CM5. Flow cell on the chip surface was activated for 7 min using a 1 : 1 mixture of 100 mM […] (EDC) and 100 mM N-hydroxysuccinimide (NHS) (both dissolved in water), and subsequently, tyrosinase was injected for 7 min, followed by injection of 1 M ethanolamine, pH 8.5 to block nonreactive sites. For this study, flow cell 3 was blank immobilized (without protein) as reference.
Crocin and kojic acid are natural tyrosinase inhibitors, whereas hydroquinone is a synthetic inhibitor. The grouping of inhibitors was simply based on the efficiency, size, solubility, and origin of inhibitors. […] PBS was used as the running buffer. The flow rate was constant (45 μL/min) throughout the experiment. The contact time (association time) and dissociation time were fixed to 120 s. Experiments were performed with different concentrations of individual inhibitors based on their solubilities: crocin (0.156–2.5 mM), hydroquinone (0.625–10 mM), kojic acid ([…]), and L-DOPA (5–80 mM). These concentrations were optimized by repeating the SPR experiments several times to achieve appropriate binding interactions. […] Regeneration was carried out with 10 mM glycine pH 2.5 for 30 s. Binding analysis was evaluated using the heterogeneous analyte kinetics model. After each cycle of regeneration, the activity of the enzyme was checked by injecting a single concentration of L-DOPA, and RU response was observed. The data analyses were done with Biacore X100 evaluation software version 2.2, and data were fit to two-state binding and/or heterogeneous analyte binding.
Flow rate was maintained at 45 μL/min. Contact time and dissociation time were kept at 120 s and 200 s. Regeneration was carried out using 10 mM glycine HCl at pH 2.5 for 30 s and at 30 μL/min. The data analysis was performed with Biacore X100 evaluation software version 2.0.1, and data were fit to two states. Each concentration represents sensorgram in the increasing order of curves. Crocin with concentrations (0.156, 0.312, 0.625, 1.25, and 2.5 mM) was injected over the enzyme surface (a). Kojic acid with concentrations (0.0156, 0.0312, 0.0625, 0.125, and 0.25 mM) was injected over the enzyme surface (b). Hydroquinone with concentrations (0.625, 1.25, 2.5, 5.0, and 10 mM) was injected over enzyme surface (c). L-DOPA with concentrations (5, 10, 20, 40 and 80 mM) was injected over the enzyme surface (d).

[2] = biological target: yam tyrosinase; assay: Diphenolase activity assay (dopachrome at 475 nm, L-DOPA substrate); type: biochemical, Amorphophallus paeoniifolius; settings: 2 mM L-DOPA, pH 7.0, 30°C
Protocol: The reaction mixture (3 mL) contained 2 mM of L-DOPA in 50 mM potassium phosphate buffer (pH 7.0); a portion of 100 μL of the enzyme was used for the activity assay. The reaction was carried out at a constant temperature of 30°C using a Shimadzu UV visible spectrophotometer. IC50 values were calculated as per the formula reported earlier.

[3] = biological target: yam tyrosinase; set-up: method as in PMID 29246874; settings: SPR, two-state model, substrate; cited from earlier work

CC(/C=C/C=C(\C)C(=O)O[C@@H]1O[C@H](CO[C@@H]2O[C@H](CO)[C@@H](O)[C@H](O)[C@H]2O)[C@@H](O)[C@H](O)[C@H]1O)=C\C=C\C=C(C)\C=C\C=C(/C)C(=O)O[C@@H]1O[C@H](CO[C@@H]2O[C@H](CO)[C@@H](O)[C@H](O)[C@H]2O)[C@@H](O)[C@H](O)[C@H]1O [Crocin, crocin]
Kd ([1]; PBS pH 7.4): 1660 µM | k a1 ([1]; PBS pH 7.4): 224 ± 11 M⁻¹ s⁻¹ | k a2 ([1]; PBS pH 7.4): 0.003525 ± 9.7e-05 s⁻¹ | k d1 ([1]; PBS pH 7.4): 0.5772 ± 0.025 s⁻¹ | k d2 ([1]; PBS pH 7.4): 0.006429 ± 0.00014 s⁻¹ | Kd ([1]; PBS pH 7.4, listed as crocin): 1700 µM | IC50 [2]: 1000 µM

N[C@@H](Cc1ccc(O)c(O)c1)C(=O)O [L-DOPA, L-3 dihydroxyphenylalanine]
Kd [3]: 1.35 µM | k a1 [3]: 9.54 × 10^4 1/ms | k a2 [3]: 0.001544 ± 1.50 × 10^4 1/s | k d1 [3]: 0.5089 ± 0.085 s⁻¹ | k d2 [3]: 0.000523 ± 8.4e-05 s⁻¹

O=c1cc(CO)occ1O [Kojic acid]
Kd ([1]; PBS pH 7.4): 6.39 µM | k a1 ([1]; PBS pH 7.4): 334 ± 16 M⁻¹ s⁻¹ | k a2 ([1]; PBS pH 7.4): 0.00539 ± 7.8e-05 s⁻¹ | k d1 ([1]; PBS pH 7.4): 0.03182 ± 0.0013 s⁻¹ | IC50 [2]: 0.1 µM

Oc1ccc(O)cc1 [Hydroquinone, hydroquinone]
k a1 ([1]; PBS pH 7.4): 2.89 ± 0.13 M⁻¹ s⁻¹ | k a2 ([1]; PBS pH 7.4): 0.001569 ± 3.5e-05 s⁻¹ | k d1 ([1]; PBS pH 7.4): 0.9166 ± 0.02 s⁻¹ | k d2 ([1]; PBS pH 7.4): 0.005185 ± 0.00013 s⁻¹ | IC50 [2]: 1500 µM
